According to patent US9539260B2, “Dihydro-benzo-oxazine and dihydro-pyrido-oxazine derivatives” (Novartis AG, priority 2012, dated 2017):

Key:
PI3K delta = PI3K delta (Homo sapiens (Human), UniProt O00329); experiment: Enzymatic PI3K delta isoform inhibition (lipid kinase activity, Kinase-Glo luminescence); assay type: biochemical; conditions: Enzymatic assay
How it was run: (§1)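 IC50s derive from 4-parameter logistic fits of % inhibition across 8 concentrations (usually 10 to 0.003 μM). Lipid kinase reaction: PI3K (10 nM) plus phosphatidylinositol (5 μg/mL) started with 2 μM ATP, stopped near 50% ATP depletion; leftover ATP quantified by Kinase-Glo luminescence.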

PI3K alpha = PI3K alpha (Homo sapiens (Human), UniProt P42336); experiment: Enzymatic PI3K alpha isoform inhibition (lipid kinase activity, Kinase-Glo luminescence); assay type: biochemical; conditions: Enzymatic assay
How it was run: as §1

Sequence of PI3K alpha (P42336 other isoform, or with tags, fused parts or gaps): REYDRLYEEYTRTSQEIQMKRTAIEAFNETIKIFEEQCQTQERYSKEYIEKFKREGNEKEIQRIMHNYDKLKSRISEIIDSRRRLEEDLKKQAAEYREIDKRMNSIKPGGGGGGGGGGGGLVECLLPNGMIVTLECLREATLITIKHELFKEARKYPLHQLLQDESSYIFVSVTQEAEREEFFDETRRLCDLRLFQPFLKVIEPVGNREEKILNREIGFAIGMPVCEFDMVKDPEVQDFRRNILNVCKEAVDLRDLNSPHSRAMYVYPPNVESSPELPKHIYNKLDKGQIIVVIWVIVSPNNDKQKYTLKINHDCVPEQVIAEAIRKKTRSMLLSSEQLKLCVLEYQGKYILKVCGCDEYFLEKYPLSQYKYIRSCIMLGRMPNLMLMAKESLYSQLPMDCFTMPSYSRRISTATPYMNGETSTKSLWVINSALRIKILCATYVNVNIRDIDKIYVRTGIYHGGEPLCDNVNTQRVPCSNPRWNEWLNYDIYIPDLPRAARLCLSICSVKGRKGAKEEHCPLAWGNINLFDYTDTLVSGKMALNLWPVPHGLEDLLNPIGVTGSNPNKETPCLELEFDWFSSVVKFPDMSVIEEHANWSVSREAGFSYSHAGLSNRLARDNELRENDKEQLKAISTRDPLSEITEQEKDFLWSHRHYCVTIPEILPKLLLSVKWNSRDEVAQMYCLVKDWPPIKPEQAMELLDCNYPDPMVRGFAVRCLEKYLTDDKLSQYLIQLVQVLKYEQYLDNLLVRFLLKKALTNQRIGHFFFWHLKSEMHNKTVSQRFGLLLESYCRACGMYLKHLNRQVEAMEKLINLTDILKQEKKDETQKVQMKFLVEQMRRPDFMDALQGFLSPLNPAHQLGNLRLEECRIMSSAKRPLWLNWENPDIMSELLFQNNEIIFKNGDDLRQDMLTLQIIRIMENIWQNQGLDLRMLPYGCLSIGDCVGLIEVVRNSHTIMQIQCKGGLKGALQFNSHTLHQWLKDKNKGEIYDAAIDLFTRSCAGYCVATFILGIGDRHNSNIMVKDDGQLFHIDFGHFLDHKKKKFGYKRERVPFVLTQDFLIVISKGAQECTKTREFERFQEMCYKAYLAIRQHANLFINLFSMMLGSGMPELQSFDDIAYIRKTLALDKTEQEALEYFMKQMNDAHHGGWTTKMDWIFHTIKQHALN
Sequence of PI3K delta (O00329 other isoform, or with tags, fused parts or gaps linker GGGGGG): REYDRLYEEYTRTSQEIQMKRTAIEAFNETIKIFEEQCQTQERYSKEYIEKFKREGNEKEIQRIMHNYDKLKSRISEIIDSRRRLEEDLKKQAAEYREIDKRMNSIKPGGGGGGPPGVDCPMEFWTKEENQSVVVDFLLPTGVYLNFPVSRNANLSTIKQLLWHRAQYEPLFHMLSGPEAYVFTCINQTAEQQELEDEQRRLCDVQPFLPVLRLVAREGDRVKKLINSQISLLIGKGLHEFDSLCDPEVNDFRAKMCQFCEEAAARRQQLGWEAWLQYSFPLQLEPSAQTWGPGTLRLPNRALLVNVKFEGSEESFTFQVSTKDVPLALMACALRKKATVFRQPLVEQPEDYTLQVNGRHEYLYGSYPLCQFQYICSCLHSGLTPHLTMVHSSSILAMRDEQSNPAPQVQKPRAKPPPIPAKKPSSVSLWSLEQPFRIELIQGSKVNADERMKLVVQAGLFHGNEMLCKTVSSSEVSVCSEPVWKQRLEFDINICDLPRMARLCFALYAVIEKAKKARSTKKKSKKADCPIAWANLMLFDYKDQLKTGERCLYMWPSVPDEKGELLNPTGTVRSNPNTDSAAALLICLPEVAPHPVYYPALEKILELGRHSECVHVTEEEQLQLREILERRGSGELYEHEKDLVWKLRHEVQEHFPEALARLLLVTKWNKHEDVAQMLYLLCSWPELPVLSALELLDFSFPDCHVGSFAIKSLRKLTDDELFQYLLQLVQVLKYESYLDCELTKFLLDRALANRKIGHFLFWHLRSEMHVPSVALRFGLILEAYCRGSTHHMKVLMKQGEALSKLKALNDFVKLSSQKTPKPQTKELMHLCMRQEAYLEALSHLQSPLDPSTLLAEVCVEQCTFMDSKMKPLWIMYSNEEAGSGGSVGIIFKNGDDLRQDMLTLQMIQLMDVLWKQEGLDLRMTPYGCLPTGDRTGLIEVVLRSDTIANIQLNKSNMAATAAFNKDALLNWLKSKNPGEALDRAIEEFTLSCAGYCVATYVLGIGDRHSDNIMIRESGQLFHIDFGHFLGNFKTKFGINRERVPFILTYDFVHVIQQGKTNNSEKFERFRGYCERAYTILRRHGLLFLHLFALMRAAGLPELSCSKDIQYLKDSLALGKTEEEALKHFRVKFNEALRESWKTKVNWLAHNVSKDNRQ

Row | Compound | IC50 (PI3K delta) | IC50 (PI3K alpha)
1 | Cc1cc(N2CCOc3ccc(O[C@H]4CCN(C(=O)C5CCCOC5)C4)cc32)cnc1S(C)(=O)=O (stereo partly drawn) [Example B42, {(S)-3-[4-(6-Methanesulfonyl-5-methyl-pyridin-3-yl)-3,4-dihydro-2H-benzo[1,4]oxazin-6-yloxy]-pyrrolidin-1-yl}-(tetrahydro-pyran-3-yl)-methanone] | 33 nM | 502 nM
2 | COc1ncc(N2CCOc3ccc(O[C@H]4CCN(C(=O)CCS(C)(=O)=O)C4)cc32)cc1Cl [Example B106, 1-{(S)-3-[4-(5-Chloro-6-methoxy-pyridin-3-yl)-3,4-dihydro-2H-benzo[1,4]oxazin-6-yloxy]-pyrrolidin-1-yl}-3-methanesulfonyl-propan-1-one] | 17 nM | 247 nM
3 | COc1ncc(N2CCOc3ccc(O[C@H]4CCN(C(=O)C5CCS(=O)(=O)CC5)C4)cc32)cc1Cl [Example B12, {(S)-3-[4-(5-Chloro-6-methoxy-pyridin-3-yl)-3,4-dihydro-2H-benzo[1,4]oxazin-6-yloxy]-pyrrolidin-1-yl}-(1,1-dioxo-hexahydro-1lambda*6*-thiopyran-4-yl)-methanone] | 11 nM | 365 nM
4 | CCC(=O)N1CC[C@H](Oc2ccc3c(c2)N(c2ccc(OC)c(S(=O)(=O)N(C)C)c2)CCO3)C1 [Example A15, 2-Methoxy-N,N-dimethyl-5-[6-((S)-1-propionyl-pyrrolidin-3-yloxy)-2,3-dihydro-benzo[1,4]oxazin-4-yl]-benzenesulfonamide] | 184 nM | 4890 nM
5 | COc1ncc(N2CCOc3ccc(O[C@H]4CCN(C(=O)Cc5ccncc5)C4)cc32)cc1C#N [S, 2-Methoxy-5-{6-[(S)-1-(2-pyridin-4-yl-acetyl)-pyrrolidin-3-yloxy]-2,3-dihydro-benzo[1,4]oxazin-4-yl}-nicotinonitrile] | 36 nM | 612 nM
6 | CNc1cc(N2CCOc3ccc(O[C@H]4CCN(C(=O)C5CCOCC5)C4)cc32)cnc1S(C)(=O)=O [Example B77, {(S)-3-[4-(6-Methanesulfonyl-5-methylamino-pyridin-3-yl)-3,4-dihydro-2H-benzo[1,4]oxazin-6-yloxy]-pyrrolidin-1-yl}-(tetrahydro-pyran-4-yl)-methanone] | 32 nM | 897 nM
7 | COc1ncc(N2CCOc3ccc(O[C@H]4CCN(C(=O)CS(C)(=O)=O)C4)cc32)cc1F [Example B111, 1-{(S)-3-[4-(5-Fluoro-6-methoxy-pyridin-3-yl)-3,4-dihydro-2H-benzo[1,4]oxazin-6-yloxy]-pyrrolidin-1-yl}-2-methanesulfonyl-ethanone] | 60 nM | 685 nM
8 | COc1ncc(N2CCOc3ccc(O[C@H]4CCN(C(=O)c5cn(C)cn5)C4)cc32)cc1N [T, {(S)-3-[4-(5-Amino-6-methoxy-pyridin-3-yl)-3,4-dihydro-2H-benzo[1,4]oxazin-6-yloxy]-pyrrolidin-1-yl}-(1-methyl-1H-imidazol-4-yl)-methanone] | 76 nM | 1880 nM
9 | CCC(=O)N1CC[C@H](Oc2ccc3c(c2)N(c2cncc(S(=O)(=O)N4CCOCC4)c2)CCO3)C1 [Example A26, 1-((S)-3-{4-[5-(Morpholine-4-sulfonyl)-pyridin-3-yl]-3,4-dihydro-2H-benzo[1,4]oxazin-6-yloxy}-pyrrolidin-1-yl)-propan-1-one] | 22 nM | 152 nM
10 | COc1ncc(N2CCOc3ccc(O[C@H]4CCN(C(=O)CN(C)C)C4)cc32)cc1C#N [Example D6, 5-{6-[(S)-1-(2-Dimethylamino-acetyl)-pyrrolidin-3-yloxy]-2,3-dihydro-benzo[1,4]oxazin-4-yl}-2-methoxy-nicotinonitrile] | 9 nM | 650 nM
11 | Cc1cc(N2CCOc3ccc(O[C@H]4CCN(C(=O)C5CCOCC5)C4)cc32)cnc1Cl [Example B58, {(S)-3-[4-(6-Chloro-5-methyl-pyridin-3-yl)-3,4-dihydro-2H-benzo[1,4]oxazin-6-yloxy]-pyrrolidin-1-yl}-(tetrahydro-pyran-4-yl)-methanone] | 4 nM | 366 nM
